Measurements published in patent publication US10968225B2, “Compounds and compositions for the treatment of cystic fibrosis” (Fondazione Istituto Italiano Di Tecnologia, priority 2017, dated 2021).
Where a name gives a salt, the structure may show the parent alone.

The molecules below were run against T1, mutant CFTR (Homo sapiens, UniProt P13569, DEL508-508) (assay: Fluorescence (HS-YFP) assay for CFTR activity, corrector assay). Conditions: CFBE41o- and FRT cells with stable expression of mutant CFTR, read-out: activity (EC50).
T1 construct: expressed in transfected cells
T1 sequence (P13569 with tags, fused parts or gaps DEL508-508): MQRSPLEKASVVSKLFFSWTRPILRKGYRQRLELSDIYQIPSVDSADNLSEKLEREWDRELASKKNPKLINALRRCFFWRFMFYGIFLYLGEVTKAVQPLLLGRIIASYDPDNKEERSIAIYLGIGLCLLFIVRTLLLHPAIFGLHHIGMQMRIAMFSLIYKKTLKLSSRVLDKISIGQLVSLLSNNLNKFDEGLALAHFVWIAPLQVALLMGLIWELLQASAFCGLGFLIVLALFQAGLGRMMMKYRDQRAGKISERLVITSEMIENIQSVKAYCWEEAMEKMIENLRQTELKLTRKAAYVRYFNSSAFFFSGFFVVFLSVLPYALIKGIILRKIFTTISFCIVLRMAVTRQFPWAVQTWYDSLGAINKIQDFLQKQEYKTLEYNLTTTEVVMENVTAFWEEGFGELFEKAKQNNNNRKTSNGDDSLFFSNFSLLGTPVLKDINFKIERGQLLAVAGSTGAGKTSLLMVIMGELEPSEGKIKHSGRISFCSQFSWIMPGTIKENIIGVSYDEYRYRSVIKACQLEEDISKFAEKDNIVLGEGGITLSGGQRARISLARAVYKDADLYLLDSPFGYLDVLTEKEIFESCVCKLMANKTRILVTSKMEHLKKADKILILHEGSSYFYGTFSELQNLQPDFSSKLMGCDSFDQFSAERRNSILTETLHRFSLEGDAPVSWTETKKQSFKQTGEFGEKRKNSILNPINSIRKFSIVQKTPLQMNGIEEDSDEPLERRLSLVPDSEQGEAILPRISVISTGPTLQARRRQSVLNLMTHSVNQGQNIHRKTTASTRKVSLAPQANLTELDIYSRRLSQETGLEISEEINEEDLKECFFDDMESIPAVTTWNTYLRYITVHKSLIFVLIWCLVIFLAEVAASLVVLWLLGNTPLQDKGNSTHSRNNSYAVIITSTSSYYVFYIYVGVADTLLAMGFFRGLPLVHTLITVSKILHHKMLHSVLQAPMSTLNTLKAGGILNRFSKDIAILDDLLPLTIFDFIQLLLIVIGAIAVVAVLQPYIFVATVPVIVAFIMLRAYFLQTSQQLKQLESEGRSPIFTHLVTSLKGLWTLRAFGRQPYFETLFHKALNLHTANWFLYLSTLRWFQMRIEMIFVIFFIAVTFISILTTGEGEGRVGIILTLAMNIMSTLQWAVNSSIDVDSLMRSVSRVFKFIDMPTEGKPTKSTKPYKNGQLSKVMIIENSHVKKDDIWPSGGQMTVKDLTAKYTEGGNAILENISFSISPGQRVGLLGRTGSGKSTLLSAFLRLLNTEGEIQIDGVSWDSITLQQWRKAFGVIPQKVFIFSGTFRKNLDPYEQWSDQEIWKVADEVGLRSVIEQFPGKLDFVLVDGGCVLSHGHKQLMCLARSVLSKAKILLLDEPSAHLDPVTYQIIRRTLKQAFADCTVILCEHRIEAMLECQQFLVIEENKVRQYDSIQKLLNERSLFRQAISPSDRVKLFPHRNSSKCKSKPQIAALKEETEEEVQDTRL
Assay type: cell-based

Structure (SMILES) | EC50
CN(C(=O)c1cccc(-n2nc(C(F)(F)F)c3c2CC2CCC3N2)c1)c1ccc2c(c1)OCO2 (racemic) [Compound 022, N-(Benzo[d][1,3]dioxol-5-yl)-N-methyl-3-(3-(trifluoromethyl)-5,6,7,8-tetrahydro-4,7-epiminocyclohepta[c]pyrazol-1(4H)-yl)benzamide hydrochloride] | < 1 µM
CN(C(=O)c1cccc(-n2nc(C(F)(F)F)c3c2CC2CCC3N2C)c1)c1ccc2c(c1)OCO2 (racemic) [Compound 023, N-(Benzo[d][1,3]dioxol-5-yl)-N-methyl-3-(9-methyl-3-(trifluoromethyl)-5,6,7,8-tetrahydro-4,7-epiminocyclohepta [c]pyrazol-1(4H)-yl)benzamide] | < 1 µM
CCC(C)N1CCc2c(c(C(F)(F)F)nn2-c2cccc(C(=O)N(C)c3ccc4c(c3)OCO4)c2)C1 (racemic) [Compound 024, N-(1,3-Benzodioxol-5-yl)-N-methyl-3-[5-sec-butyl-3-(trifluoromethyl)-6,7-dihydro-4H-pyrazolo[4,3-c]pyridin-1-yl]benzamide] | < 1 µM
CN(C(=O)c1cccc(-n2nc(C(F)(F)F)c3c2C(Oc2cncc(C(=O)O)c2)COC3)c1)c1ccc2c(c1)OC(F)(F)O2 (racemic) [Compound 210, 5-[[1-[3-[(2,2-Difluoro-1,3-benzodioxol-5-yl)-methyl-carbamoyl]phenyl]-3-(trifluoromethyl)-6,7-dihydro-4H-pyrano[4,3-c]pyrazol-7-yl]oxy]pyridine-3-carboxylic acid] | 1 to 2 µM
CN(C(=O)c1cccc(-n2nc(C(F)(F)F)c3c2C(Oc2ccc(C(=O)O)cn2)COC3)c1)c1ccc2c(c1)OC(F)(F)O2 (racemic) [Compound 213, 6-[[1-[3-[(2,2-Difluoro-1,3-benzodioxol-5-yl)-methyl-carbamoyl]phenyl]-3-(trifluoromethyl)-6,7-dihydro-4H-pyrano[4,3-c]pyrazol-7-yl]oxy]pyridine-3-carboxylic acid] | < 1 µM
CN(C(=O)c1cccc(-n2nc(C(F)(F)F)c3c2C(Oc2ccc(C(=O)O)cc2)CCC3)c1)c1cnc(OC(F)F)nc1 (racemic) [Compound 219, 4-[[1-[3-[[2-(Difluoromethoxy)pyrimidin-5-yl]-methyl-carbamoyl]phenyl]-3-(trifluoromethyl)-4,5,6,7-tetrahydroindazol-7-yl]oxy]benzoic acid] | 1 to 2 µM
CN(C(=O)c1cccc(-n2nc(C(F)(F)F)c3c2C(Oc2cc(C(=O)O)ccn2)COC3)c1)c1ccc2c(c1)OC(F)(F)O2 (racemic) [Compound 231, 2-[[1-[3-[(2,2-Difluoro-1,3-benzodioxol-5-yl)-methyl-carbamoyl]phenyl]-3-(trifluoromethyl)-6,7-dihydro-4H-pyrano[4,3-c]pyrazol-7-yl]oxy]pyridine-4-carboxylic acid] | < 1 µM
CN(C(=O)c1cccc(-n2nc(C(F)F)c3c2C(Oc2ccc(C(=O)O)cc2)CCC3)c1)c1ccc2c(c1)OC(F)(F)O2 (racemic) [Compound 254, (rac)-4-[[1-[3-[(2,2-difluoro-1,3-benzodioxol-5-yl)-methyl-carbamoyl]phenyl]-3-(difluoromethyl)-4,5,6,7-tetrahydroindazol-7-yl]oxy]benzoic acid] | < 1 µM
CN(C(=O)c1cccc(-n2nc(C(F)(F)F)c3c2C(Oc2ccc(C(=O)O)cc2)CCC3)c1)c1cnc2c(c1)CCC2 (racemic) [Compound 258, (rac)-4-[[1-[3-[6,7-dihydro-5H-Cyclopenta[b]pyridin-3-yl(methyl)carbamoyl]phenyl]-3-(trifluoromethyl)-4,5,6,7-tetrahydroindazol-7-yl]oxy]benzoic acid] | < 1 µM
CN(C(=O)c1cccc(-n2nc(C(F)(F)F)c3c2C(Oc2ccc(C(=O)O)cc2)CCC3)c1)c1cnc2c(c1)OCC2 (racemic) [Compound 259, (rac)-4-[[1-[3-[2,3-Dihydrofuro[3,2-b]pyridin-6-yl(methyl)carbamoyl]phenyl]-3-(trifluoromethyl)-4,5,6,7-tetrahydroindazol-7-yl]oxy]benzoic acid] | < 1 µM
CN(C(=O)c1cccc(-n2nc(C(F)(F)F)c3c2C(Oc2ccc(C(=O)O)cc2)CCC3)c1)c1cnc2c(c1)COC2 (racemic) [Compound 260, (rac)-4-[[1-[3-[5,7-Dihydrofuro[3,4-b]pyridin-3-yl(methyl)carbamoyl]phenyl]-3-(trifluoromethyl)-4,5,6,7-tetrahydroindazol-7-yl]oxy]benzoic acid] | 1 to 2 µM
CN(C(=O)c1cccc(-n2nc(C(F)(F)F)c3c2C(Oc2ccc(C(=O)O)cc2)CCC3)c1)c1ccc2c(c1)OCC2 (racemic) [Compound 261, (rac)-4-[[1-[3-[2,3-Dihydrobenzofuran-6-yl(methyl)carbamoyl]phenyl]-3-(trifluoromethyl)-4,5,6,7-tetrahydroindazol-7-yl]oxy]benzoic acid] | < 1 µM
CN(C(=O)c1cccc(-n2nc(C(F)(F)F)c3c2C(Oc2ccc(C(=O)O)cc2)COC3)c1)c1cnc2c(c1)OCC2 (racemic) [Compound 262, 4-[[1-[3-[2,3-Dihydrofuro[3,2-b]pyridin-6-yl(methyl)carbamoyl]phenyl]-3-(trifluoromethyl)-6,7-dihydro-4H-pyrano[4,3-c]pyrazol-7-yl]oxy]benzoic acid] | 1 to 2 µM
CN(C(=O)c1cccc(-n2nc(C(F)F)c3c2C(Oc2ccc(C(=O)O)cc2)COC3)c1)c1ccc2c(c1)OC(F)(F)O2 (racemic) [Compound 263, 4-[[1-[3-[(2,2-difluoro-1,3-benzodioxol-5-yl)-methyl-carbamoyl]phenyl]-3-(difluoromethyl)-6,7-dihydro-4H-pyrano[4,3-c]pyrazol-7-yl]oxy]benzoic acid] | < 1 µM
CN(C(=O)c1cccc(-n2nc(C(F)(F)F)c3c2C(Oc2ccc(C(=O)O)cc2)COC3)c1)c1ccc2c(c1)OCC2 (racemic) [Compound 265, 4-[[1-[3-[2,3-Dihydrobenzofuran-6-yl(methyl)carbamoyl]phenyl]-3-(trifluoromethyl)-6,7-dihydro-4H-pyrano[4,3-c]pyrazol-7-yl]oxy]benzoic acid] | < 1 µM
CN(C(=O)c1cccc(-n2nc(C(F)(F)F)c3c2C(Oc2ccc(C(=O)O)cc2)CCC3)c1)c1cccc(OC(F)F)c1 (racemic) [Compound 266, 4-[[1-[3-[[3-(Difluoromethoxy)phenyl]-methyl-carbamoyl]phenyl]-3-(trifluoromethyl)-4,5,6,7-tetrahydroindazol-7-yl]oxy]benzoic acid] | 1 to 2 µM
CN(C(=O)c1cccc(-n2nc(C(F)(F)F)c3c2C(Oc2ccc(C(=O)O)cc2)CCC3)c1)c1cncc(OC(F)F)c1 (racemic) [Compound 267, 4-[[1-[3-[[5-(Difluoromethoxy)-3-pyridyl]-methyl-carbamoyl]phenyl]-3-(trifluoromethyl)-4,5,6,7-tetrahydroindazol-7-yl]oxy]benzoic acid] | 1 to 2 µM
CN(C(=O)c1cccc(-n2nc(C(F)(F)F)c3c2C(Oc2ccc(C(=O)O)cc2)CCC3)c1)c1ccnc(OC(F)F)c1 (racemic) [Compound 268] | < 1 µM
Cc1nc2ncc(N(C)C(=O)c3cccc(-n4nc(C(F)(F)F)c5c4C(Oc4ccc(C(=O)O)cc4)COC5)c3)cc2o1 (racemic) [Compound 269, 4-[[1-[3-[Methyl-(2-methyloxazolo[4,5-b]pyridin-6-yl)carbamoyl]phenyl]-3-(trifluoromethyl)-6,7-dihydro-4H-pyrano[4,3-c]pyrazol-7-yl]oxy]benzoic acid] | < 1 µM
CN(C(=O)c1cccc(-n2nc(C(F)(F)F)c3c2C(Oc2ccc(C(=O)O)cc2)COC3)c1)c1ccnc(OC(F)F)c1 (racemic) [Compound 270, 4-[[1-[3-[[2-(Difluoromethoxy)-4-pyridyl]-methyl-carbamoyl]phenyl]-3-(trifluoromethyl)-6,7-dihydro-4H-pyrano[4,3-c]pyrazol-7-yl]oxy]benzoic acid] | < 1 µM
CN(C(=O)c1cccc(-n2nc(C(F)(F)F)c3c2C(Oc2ccc(C(=O)O)cc2)CNC3)c1)c1ccc2c(c1)OC(F)(F)O2 (racemic) [Compound 273, 4-[[1-[3-[(2,2-Difluoro-1,3-benzodioxol-5-yl)-methyl-carbamoyl]phenyl]-3-(trifluoromethyl)-4,5,6,7-tetrahydropyrazolo[4,3-c]pyridin-7-yl]oxy]benzoic acid hydrochloride] | < 1 µM
CN(C(=O)c1cccc(-n2nc(C(F)(F)F)c3c2C(Oc2ccc(C(=O)O)cc2)COC3)c1)c1cnc2c(c1)CCC2 (racemic) [Compound 281, 4-[[1-[3-[6,7-Dihydro-5H-cyclopenta[b]pyridin-3-yl(methyl)carbamoyl]phenyl]-3-(trifluoromethyl)-6,7-dihydro-4H-pyrano[4,3-c]pyrazol-7-yl]oxy]benzoic acid] | 1 to 2 µM
Cc1cc2ncc(N(C)C(=O)c3cccc(-n4nc(C(F)(F)F)c5c4C(Oc4ccc(C(=O)O)cc4)COC5)c3)cn2n1 (racemic) [Compound 294, 4-[[1-[3-[Methyl-(2-methylpyrazolo[1,5-a]pyrimidin-6-yl)carbamoyl]phenyl]-3-(trifluoromethyl)-6,7-dihydro-4H-pyrano[4,3-c]pyrazol-7-yl]oxy]benzoic acid] | < 1 µM
CN(C(=O)c1cccc(-n2nc(C(F)(F)F)c3c2C(Oc2ncc(C(=O)O)cn2)COC3)c1)c1ccc2c(c1)OC(F)(F)O2 (racemic) [Compound 295, 2-[[1-[3-[(2,2-Difluoro-1,3-benzodioxol-5-yl)-methyl-carbamoyl]phenyl]-3-(trifluoromethyl)-6,7-dihydro-4H-pyrano[4,3-c]pyrazol-7-yl]oxy]pyrimidine-5-carboxylic acid] | 1 to 2 µM
CN(C(=O)c1cccc(-n2nc(C(F)(F)F)c3c2C(Oc2ncc(C(=O)O)cn2)COC3)c1)c1ccc2c(c1)OCC2 (racemic) [Compound 296, 2-[[1-[3-[2,3-Dihydrobenzofuran-6-yl(methyl)carbamoyl]phenyl]-3-(trifluoromethyl)-6,7-dihydro-4H-pyrano[4,3-c]pyrazol-7-yl]oxy]pyrimidine-5-carboxylic acid] | < 1 µM
Cc1nc2ccc(N(C)C(=O)c3cccc(-n4nc(C(F)(F)F)c5c4C(Oc4ncc(C(=O)O)cn4)COC5)c3)cc2o1 (racemic) [Compound 297] | < 1 µM
